Holding throughout (assay type): in vivo
For assay [1], the system named is Triticum aestivum. The assay is described as follows: Pre-emergence test. As to conditions: 3 weeks after treatment. How it is done:
(§1) To evaluate their herbicidal activity, compounds according to the invention are tested using a representative range of plants: TRZAW Triticum aestivum The pre-emergence tests involve spraying a liquid formulation of the compound onto the soil in which the seeds of the plant species mentioned above has recently been sown. The soil used in the tests is a prepared horticultural loam. The formulations used in the tests are prepared from solutions of the test compounds in acetone containing 0.4% by weight of an alkylphenol/ethylene oxide condensate available under the trade mark TRITON X-155. These acetone solutions are diluted with water and the resulting formulations applied at dosage levels corresponding to 0.025 kg, 0.100 kg or 0.400 kg of active material per hectare in a volume equivalent to 900 litres per hectare. In these tests untreated sown soil are used as controls. From 2 to 4 weeks after treatment, the tests are terminated and each pot is examined and rated according to the rating system set forth below: [table]

Assay [2] has as its system Setaria viridis. Kind of assay: Post-emergence test. To be noted: 2-4 weeks after treatment. As to the method:
(§2) To evaluate their herbicidal activity, compounds according to the invention are tested using a representative range of plants: SETVI Setaria viridis [table] […] These acetone solutions are diluted with water and the resulting formulations applied at dosage levels equivalent of about 0.1 to 0. 4 kg per hectare of test compound per pot. After spraying the plants are placed on greenhouse benches and are cared for in the usual manner, commensurate with conventional greenhouse practices. From 2 to 4 weeks after treatment, the seedling plants are examined and rated according to the rating system provided above.

The subject of assay [3] is Setaria viridis. The assay is described as follows: Pre-emergence test. To be noted: 3 weeks after treatment. How it is done: as §1, with “SETVI Setaria viridis” for “TRZAW Triticum aestivum”
Assay [4] has as its system Stellaria media. The assay is described as follows: Pre-emergence test. To be noted: 3 weeks after treatment. How it is done: as §1, with “STEME Stellaria media” for “TRZAW Triticum aestivum”
Assay [5] deals with Matricaria inodora. Kind of assay: Post-emergence test. As to conditions: 2-4 weeks after treatment. As to the method: as §2, with “MATIN Matricaria inodora” for “SETVI Setaria viridis”
Assay [6] relates to Galium aparine. Kind of assay: Pre-emergence test. To be noted: 3 weeks after treatment. How it is done:
as §1, with “GALAP Galium aparine” for “TRZAW Triticum aestivum”

In assay [7] the test system is Hordeum vulgare. Kind of assay: Post-emergence test. As to conditions: 2-4 weeks after treatment. How it is done:
as §2, with “HORVW Hordeum vulgare” for “SETVI Setaria viridis”

The test system of assay [8] is Glycine max. The assay is described as follows: Post-emergence test. As to conditions: 2-4 weeks after treatment. As to the method:
To evaluate their herbicidal activity, compounds according to the invention are tested using a representative range of plants:
These acetone solutions are diluted with water and the resulting formulations applied at dosage levels equivalent of about 0.1 to 0. 4 kg per hectare of test compound per pot. After spraying the plants are placed on greenhouse benches and are cared for in the usual manner, commensurate with conventional greenhouse practices. From 2 to 4 weeks after treatment, the seedling plants are examined and rated according to the rating system provided above.

Assay [9] concerns Alopecurus myosuroides. The assay is described as follows: Post-emergence test. To be noted: 2-4 weeks after treatment. How it is done: as §2, with “ALOMY Alopecurus myosuroides” for “SETVI Setaria viridis”

Turning to `Cn1nc(C(F)(F)F)cc1Oc1cc(C#N)cc(-c2cc(C(F)(F)F)nn2C)n1` [Example 3, 4-Cyano-2-(1-methyl-3-trifluoromethylpyrazol-5-yloxy)-6-(1-methyl-3-trifluoromethylpyrazol-5-yl)pyridine], the values for the TRZAW herbicidal rating in [1] (0.025 kg/ha), in assay [1] (0.100 kg/ha) and in assay [1] (0.400 kg/ha) were 0 (0 - No effect), 0 (0 - No effect) and 4 (4 - Injury), respectively. Further, the SETVI herbicidal rating in assay [2] (0.1 kg/ha) is 5 (5 - Definite injury); in [2] (0.4 kg/ha) it was 7 (7 - Good herbicidal effect); in [3] (0.025 kg/ha), 3 (3 - Moderate effect); in [3] (0.100 kg/ha), 5 (5 - Definite injury); in assay [3] (0.400 kg/ha), 8 (8 - Approaching complete kill). Also, the STEME herbicidal rating is 8 (8 - Approaching complete kill) in assay [4] (0.025 kg/ha), 9 (9 - Complete kill) in [4] (0.100 kg/ha) and 9 (9 - Complete kill) in assay [4] (0.400 kg/ha). The MATIN herbicidal rating in [5] (0.1 kg/ha) and in assay [5] (0.4 kg/ha) was 8 (8 - Approaching complete kill) each time. Moreover, the figures for the GALAP herbicidal rating in [6] (0.025 kg/ha), in [6] (0.100 kg/ha) and in assay [6] (0.400 kg/ha) were 1 (1 - Trace effect), 4 (4 - Injury) and 8 (8 - Approaching complete kill), respectively. In addition, the HORVW herbicidal rating was 3 (3 - Moderate effect) in assay [7] (0.1 kg/ha) and 5 (5 - Definite injury) in [7] (0.4 kg/ha). Also, the GLXMA herbicidal rating in assay [8] (0.1 kg/ha) is on record as 3 (3 - Moderate effect); in assay [8] (0.4 kg/ha) it was 4 (4 - Injury). Moreover, the ALOMY herbicidal rating in [9] (0.1 kg/ha) was 3 (3 - Moderate effect); in assay [9] (0.4 kg/ha) it was 4 (4 - Injury).
`Cc1cc(Oc2cccc(C(F)(F)F)c2)nc(-c2cc(C(F)(F)F)nn2C)c1` [Example 63]: the TRZAW herbicidal rating in assay [1] (0.025 kg/ha), in assay [1] (0.100 kg/ha) and in [1] (0.400 kg/ha) was 0 (0 - No effect) each time. Besides, the SETVI herbicidal rating in [2] (0.1 kg/ha) is reported as 3 (3 - Moderate effect); in [2] (0.4 kg/ha), 6 (6 - Herbicidal effect); in assay [3] (0.025 kg/ha), 1 (1 - Trace effect); in assay [3] (0.100 kg/ha) it was 5 (5 - Definite injury); in assay [3] (0.400 kg/ha), 9 (9 - Complete kill). In addition, the STEME herbicidal rating in [4] (0.100 kg/ha) is reported as 3 (3 - Moderate effect); in [4] (0.400 kg/ha) it was 9 (9 - Complete kill). The MATIN herbicidal rating in [5] (0.1 kg/ha) is 5 (5 - Definite injury); in [5] (0.4 kg/ha), 7 (7 - Good herbicidal effect). Further, the GALAP herbicidal rating in assay [6] (0.025 kg/ha) was 0 (0 - No effect); in assay [6] (0.100 kg/ha), 0 (0 - No effect); in [6] (0.400 kg/ha), 1 (1 - Trace effect). In addition, the HORVW herbicidal rating in assay [7] (0.1 kg/ha) and in [7] (0.4 kg/ha) was 3 (3 - Moderate effect) in each case. For the same molecule, the GLXMA herbicidal rating is 3 (3 - Moderate effect) in assay [8] (0.1 kg/ha) and 7 (7 - Good herbicidal effect) in [8] (0.4 kg/ha). Also, the ALOMY herbicidal rating in [9] (0.1 kg/ha) is given as 1 (1 - Trace effect); in assay [9] (0.4 kg/ha), 2 (2 - Slight effect).
As for `Cc1cnc(-c2cc(C(F)(F)F)nn2C)nc1Oc1cc(C(F)(F)F)nn1C` [Example 4, 2-(1-Methyl-3-trifluoromethylpyrazol-5-yl)-6-(1-methyl-3-trifluoromethylpyrazol-5-yloxy)-5-methylpyrimidine], the TRZAW herbicidal rating in assay [1] (0.025 kg/ha) is 1 (1 - Trace effect); in assay [1] (0.100 kg/ha), 2 (2 - Slight effect); in assay [1] (0.400 kg/ha), 4 (4 - Injury). For the same molecule, the SETVI herbicidal rating was 9 (9 - Complete kill) in [2] (0.1 kg/ha); 9 (9 - Complete kill) in assay [2] (0.4 kg/ha); 8 (8 - Approaching complete kill) in assay [3] (0.025 kg/ha); 9 (9 - Complete kill) in assay [3] (0.100 kg/ha); 9 (9 - Complete kill) in assay [3] (0.400 kg/ha). The STEME herbicidal rating in assay [4] (0.025 kg/ha), in assay [4] (0.100 kg/ha) and in assay [4] (0.400 kg/ha) was 9 (9 - Complete kill) in each case. In addition, the MATIN herbicidal rating is recorded as 5 (5 - Definite injury) in [5] (0.1 kg/ha) and 7 (7 - Good herbicidal effect) in assay [5] (0.4 kg/ha). For the same molecule, the GALAP herbicidal rating is given as 1 (1 - Trace effect) in assay [6] (0.025 kg/ha) and 8 (8 - Approaching complete kill) in assay [6] (0.400 kg/ha). Moreover, the HORVW herbicidal rating in [7] (0.1 kg/ha) is given as 3 (3 - Moderate effect); in assay [7] (0.4 kg/ha), 5 (5 - Definite injury). For the same molecule, the GLXMA herbicidal rating in assay [8] (0.1 kg/ha) is reported as 4 (4 - Injury); in [8] (0.4 kg/ha), 6 (6 - Herbicidal effect). In addition, the ALOMY herbicidal rating is on record as 5 (5 - Definite injury) in assay [9] (0.1 kg/ha) and 7 (7 - Good herbicidal effect) in assay [9] (0.4 kg/ha).

(Values after US6528456B2, “Herbicidal 2-pyrazolyl-6-aryloxypyri(mi)dines” (BASF Aktiengesellschaft, priority 1999, dated 2003).)
